Measured values published in PMC9921329, “Semisynthetic Sesquiterpene Lactones Generated by the Sensibility of Glaucolide B to Lewis and Brønsted–Lowry Acids and Bases: Cytotoxicity and Anti-Inflammatory Activities” (Molecules, 2023).

Experiments:
[1] = test system: SK-MEL-28 (human melanoma cell line); experiment: MTT cell viability / cytotoxicity, human melanoma cells; format: cell-based; conditions: for Viability (%) SK-MEL-28 / CC50: MTT; for Viability (%) SK-MEL-28: 24 h incubation, mean ± SD (n = 3), test concentration not given; for CC50: 24 h, half-maximal cytotoxic concentration; for SI (selectivity index) SK-MEL-28: ratio of CC50 of non-tumoral HUVEC cells to CC50 of SK-MEL-28
Procedure: (§1) To evaluate the potential antitumoral activity of the compounds, the MTT [3-(4,5-dimethyl-2-thiazolyl)-2,5-diphenyl-2H-tetrazolium bromide] method was used to determine the cell viability of SK-MEL-28 (human melanoma cell line), NCI-H460 (human lung carcinoma cell line), SF295 (human glioblastoma cell line), and HUVEC (human umbilical vein endothelial cells) line. Cell viability analysis of murine macrophage J774A.1 was conducted using a resazurin-based cytotoxicity assay (Alamar blue®). All cell lines were acquired from the BCRJ (Rio de Janeiro Cell Bank, Federal University of Rio de Janeiro, Brazil). The cell lines were cultivated in RPMI-1640 or DMEM medium, supplemented with 1.5 g/L of sodium bicarbonate, 10 mM of HEPES, pH 7.4, 100 U/mL of penicillin G, 100 μg/mL of streptomycin, and 10% fetal calf serum at 37 °C in a humidified atmosphere consisting of 95% air and 5% CO2 cultures, and greater than 95% of viable cells in trypan blue exclusion tests were used for the experiments. Therefore, cells were seeded (1 × 10^4/well) in 96-well plates and incubated with increasing concentrations of the compounds for 24 h. After incubation, the former culture medium was replaced with a fresh culture medium with 5 mg/mL of MTT and with 0.1 mg/mL of resazurin for 2 h at 37 °C. MTT formazan crystals were dissolved in DMSO, and the absorbance of each well was measured at 540 nm, using a micro-well system reader. For the control group of each cell line, cells were incubated without the compounds and considered to have 100% cell viability. MTT formazan crystals were dissolved in DMSO, and absorbance was measured at 540 nm using a microplate reader (ELX800, Biotek, Winooski, VT, USA). The half-maximal cytotoxic concentration (CC50) values were calculated from a Hill concentration–response curve. Results were expressed as the mean ± SD of three experiments. The selectivity index (SI) was calculated via the ratio between the CC50 of non-tumoral cells and the tumoral cell lines. […] For the resazurin assay, fluorescence was measured at 1 h intervals using a plate multi-reader (Infinite Multireader m200 Tecan) at 530–590 nm. Nonlinear regression of each fraction versus percentage cell viability was performed to obtain a 10% toxicity concentration (a concentration causing 90% cell viability) using GraphPad Prism 8.0 software (GraphPad Software, San Diego, CA, USA).

[2] = test system: NCI-H460 (human lung carcinoma cell line); experiment: MTT cell viability, human lung carcinoma cells; format: cell-based; conditions: 24 h incubation, mean ± SD (n = 3), test concentration not given
Procedure: as §1

[3] = test system: SF295 (human glioblastoma cell line); experiment: MTT cell viability, human glioblastoma cells; format: cell-based; conditions: 24 h incubation, mean ± SD (n = 3), test concentration not given
Procedure: as §1

[4] = test system: murine macrophage J774A.1; experiment: Resazurin-based cytotoxicity assay (Alamar blue) in macrophages; format: cell-based; conditions: J774A.1, Figure S70
Procedure: To evaluate the potential antitumoral activity of the compounds, the MTT [3-(4,5-dimethyl-2-thiazolyl)-2,5-diphenyl-2H-tetrazolium bromide] method was used to determine the cell viability of SK-MEL-28 (human melanoma cell line), NCI-H460 (human lung carcinoma cell line), SF295 (human glioblastoma cell line), and HUVEC (human umbilical vein endothelial cells) line. Cell viability analysis of murine macrophage J774A.1 was conducted using a resazurin-based cytotoxicity assay (Alamar blue®). All cell lines were acquired from the BCRJ (Rio de Janeiro Cell Bank, Federal University of Rio de Janeiro, Brazil). […] MTT formazan crystals were dissolved in DMSO, and the absorbance of each well was measured at 540 nm, using a micro-well system reader. […] MTT formazan crystals were dissolved in DMSO, and absorbance was measured at 540 nm using a microplate reader (ELX800, Biotek, Winooski, VT, USA). The half-maximal cytotoxic concentration (CC50) values were calculated from a Hill concentration–response curve. Results were expressed as the mean ± SD of three experiments. The selectivity index (SI) was calculated via the ratio between the CC50 of non-tumoral cells and the tumoral cell lines. […] For the resazurin assay, fluorescence was measured at 1 h intervals using a plate multi-reader (Infinite Multireader m200 Tecan) at 530–590 nm. […]

[5] = test system: LPS-stimulated M1 macrophages J774A.1 (IL-6); experiment: Interleukin-6 release from LPS-stimulated macrophages (ELISA); format: cell-based, murine; conditions: for Anti-inflammatory activity, IL-6 release (in words): compound at CC10, LPS 10 μg/mL; for Reduction of IL-6 release vs control M1 cells (LPS+ group): compound at CC10, pre-treatment 15 min, LPS 10 μg/mL, 24 h
Procedure: (§2) The in vitro anti-inflammatory activity was performed in murine macrophage J774A.1 and analyzed after modifications to the protocol previously described by […] and coworkers. The evaluation consisted of measuring the production of nitrite through an indicator of NO synthesis in supernatants from LPS-activated macrophages. A number of 1 × 10^5 cells/well were seeded in 96-well plates for 24 h, after which time the culture medium was changed, and the CC10 concentration (Figure S70, found in the Supplementary Materials) of each compound was added to the medium containing DMEM supplemented with 10% FBS. After 15 min, macrophages were stimulated with 10 μg/mL of LPS and incubated for 24 h to obtain a proinflammatory M1-phenotype. Subsequently, supernatants were collected and total nitrite nitrate (NOx) was measured by adding 100 μL of Griess' reagent (1% sulfanilamide and 0.1% N-(1-naphthyl) ethylenediamine in 0.5% phosphoric acid). Absorbance was determined with a microplate reader (ELX800, BioTek, Winooski, VT, USA) at 540 nm. In addition, the proinflammatory cytokine IL-6 was determined using an enzyme-linked immunosorbent assay (ELISA) (BD Bioscience, San Jose, CA, USA) according to the manufacturer's instructions.

[6] = MTT cytotoxicity, non-tumoral endothelial cells; format: cell-based, human; conditions: human, HUVEC cells (non-tumoral), pH 7.4
Procedure: as §1

[7] = test system: LPS-stimulated M1 macrophages J774A.1 (NOx); experiment: Total nitrite nitrate (NOx) release from LPS-stimulated macrophages (Griess); format: cell-based, murine; conditions: for Anti-inflammatory activity, NOx release (in words): compound at CC10, LPS 10 μg/mL; for Reduction of NOx release vs control M1 cells (LPS+ group): compound at CC10, pre-treatment 15 min, LPS 10 μg/mL, 24 h
Procedure: as §2

[8] = test system: HUVEC (human umbilical vein endothelial cells); experiment: MTT cytotoxicity, non-tumoral endothelial cells; format: cell-based; conditions: 24 h
Procedure: as §1

Molecule	Viability (%) SK-MEL-28 [1] [%]	Viability (%) NCI-H460 [2] [%]	Viability (%) SF295 [3] [%]	also measured
CC(=O)OCC1=C2C(OC(C)=O)CC(C)(OC(C)=O)C(=O)CCC3(C)OC3C2OC1=O (stereo not drawn) [Compound 1, glaucolide B]	82.6 ± 4.1	85.1 ± 4.6	88.0 ± 4.8	
COCC1=C2C(OC(C)=O)CC(C)(OC(C)=O)C3(O)CCC(C)(O)C(OC(C)=O)C23OC1=O (stereo not drawn) [Compound 2, 13-O-methylvernojalcanolide-8-O-acetate]	87.1 ± 2.6	91.8 ± 3.6	86.8 ± 6.3	
CC(=O)OCC1=C2C(OC(C)=O)CC(C)(OC(C)=O)C3(O)CCC(C)(O)C(OC(C)=O)C23OC1=O (stereo not drawn) [Compound 3, 1,4-dihydroxy-5,8,10,13-tetraacetoxycadin-7(11)-en-6,12-olide]	91.1 ± 1.7	88.4 ± 3.4	86.1 ± 2.3	
C=C1C(=O)OC2C(OC(C)=O)C3(C)CC4C12C(OC(C)=O)CC(C)(OC(C)=O)C4(O)O3 (stereo not drawn) [Compound 4, 5,8-diacetoxy-2-epi-vernomargolide-1,4-cyclosemiacetal]	96.4 ± 6.9	100.2 ± 2.7	94.7 ± 1.1	
C=C1C(=O)OC2C(OC(C)=O)C3(C)CC4C12C(OC(C)=O)CC(C)(O)C4(O)O3 (stereo not drawn) [Compound 5, 5,8,10-triacetoxy-2-epi-vernomargolide-1,4-cyclosemiacetal]	95.3 ± 4.1	100.3 ± 5.5	95.6 ± 3.9	
C=C1C(=O)OC2C(OC(C)=O)C3(C)CC4C12C(OC(C)=O)CC1(C)OC(C)(C)OC41O3 (stereo not drawn) [Compound 6, 5,8-diacetoxy-2-epi-vernomargolide-1,4-cycloacetal-1,10-acetonide]	85.9 ± 4.0	90.4 ± 1.5	90.4 ± 3.7	
CC(=O)OCC1=C2C(OC(C)=O)CC(C)(OC(C)=O)C3(O)CCC(C)(O3)C(O)C2OC1=O (stereo not drawn) [Compound 7, 5-hydroxy-hirsutinolide]	76.2 ± 7.5	89.1 ± 3.9	86.7 ± 3.8	
CC(=O)OCC1=C2C(OC(C)=O)CC(C)(OC(C)=O)C3(O)CCC(C)(O3)C(OC(C)=O)C2OC1=O (stereo not drawn) [Compound 7a, 5-acetoxy-hirsutinolide]	17.1 ± 3.3	74.6 ± 1.3	86.9 ± 4.3	Cytotoxicity against macrophages (in words) [4]: less cytotoxicity against macrophages; Anti-inflammatory activity, IL-6 release (in words) [5]: strongly reduced; Reduction of IL-6 release vs control M1 cells (LPS+ group) [5]: ~77%; CC50 ([1]; Homo sapiens, SK-MEL-28): 5 µM; SI (selectivity index) SK-MEL-28 [1]: 2.5; CC50 at 24 h [6]: 12.7 µM; Anti-inflammatory activity, NOx release (in words) [7]: strongly reduced; Reduction of NOx release vs control M1 cells (LPS+ group) [7]: ~77%
CC(=O)OCC1=C2/C(=C\C3(C)CC=C(O3)C(C)(OC(C)=O)CC2OC(C)=O)OC1=O (stereo not drawn) [Compound 7b, 8,10,13-triacetoxy-1(4)-epoxy-germacra-1(2),5(6),7(11)-trien-6(12)-olide]	16.0 ± 2.6	73.2 ± 1.0	83.3 ± 1.2	CC50 ([1]; Homo sapiens, SK-MEL-28): 11.2 µM; SI (selectivity index) SK-MEL-28 [1]: 2.5; CC50 at 24 h [6]: 27.8 µM
C=C1C(=O)OC2(O)C(=O)C3(C)CCC(=O)C(C)(OC(C)=O)CC(OC(C)=O)C12O3 (stereo not drawn) [Compound 7c.1, 8,10-diacetoxy-4(7)-epoxy-6-hydroxy-1,5-oxo-germacr-11(13)-en-6(12)-olide]	77.3 ± 0.3	88.7 ± 6.7	87.0 ± 4.7	Cytotoxicity against macrophages (in words) [4]: less cytotoxicity against macrophages; Anti-inflammatory activity, IL-6 release (in words) [5]: strongly reduced; Reduction of IL-6 release vs control M1 cells (LPS+ group) [5]: ~77%; Anti-inflammatory activity, NOx release (in words) [7]: strongly reduced; Reduction of NOx release vs control M1 cells (LPS+ group) [7]: ~77%
CC(=O)OCC1=C2C(OC(C)=O)CC(C)(OC(C)=O)C3(O)CCC(C)(O3)C(=O)C2(O)OC1=O (stereo not drawn) [Compound 7c]	79.2 ± 6.4	85.7 ± 1.6	88.6 ± 4.8	
C=C1C(=O)OC2C(O)C3(C)CCC(OC(C)=O)(O3)C3(C)CC(OC(C)=O)C12O3 (stereo not drawn) [Compound 8, 1,8-diacetoxy-1(4),7(10)-diepoxy-5-hydroxygermacr-11(13)-en-6(12)-olide]	66.9 ± 3.5	87.3 ± 1.6	82.0 ± 4.7	
C=C1C(=O)OC2C(OC(C)=O)C3(C)CCC(OC(C)=O)(O3)C3(C)CC(OC(C)=O)C12O3 (stereo not drawn) [Compound 8a, 1,5,8-triacetoxy-1(4),7(10)-diepoxy-germacr-11(13)-en-6(12)-o1ide]	5.3 ± 0.3	53.1 ± 0.0	67.3 ± 4.0	CC50 ([1]; Homo sapiens, SK-MEL-28): 3.1 µM; SI (selectivity index) SK-MEL-28 [1]: 3.0; CC50 at 24 h [6]: 9 µM
C=C1C(=O)OC2C(O)C(C)(O)CC3C(=O)C(C)(O)CC(OC(C)=O)C132 (stereo not drawn) [Compound 9, 8-acetoxy-vernomargolide]	74.5 ± 4.9	84.9 ± 0.4	85.2 ± 2.8	
C=C1C(=O)OC2C(OC(C)=O)C(C)(O)CC3C(=O)C(C)(O)CC(OC(C)=O)C132 (stereo not drawn) [Compound 9a, 5,8-diacetoxy-vernomargolide]	73.8 ± 3.1	84.8 ± 0.9	85.9 ± 5.0	
C=C(C)C(=O)OC1CC(C)(O)C2(O)CCC(C)(/C=C3/OC(=O)C(COC(C)=O)=C31)O2 (stereo not drawn) [Compound 10, piptocarphin A, reference compound]	23.1 ± 4.2	104.8 ± 1.6	93.2 ± 3.2	CC50 ([1]; Homo sapiens, SK-MEL-28): 6.7 µM; SI (selectivity index) SK-MEL-28 [1]: 1.9; CC50 at 24 h [6]: 12.5 µM
CC(=O)OCC1=C2/C(=C\C3(C)CCC(O)(O3)C(C)(O)CC2OC(C)=O)OC1=O (stereo not drawn) [Compound 12, diacetylpiptocarphol, reference compound]	9.0 ± 0.5	63.8 ± 6.9	80.4 ± 3.3	CC50 ([1]; Homo sapiens, SK-MEL-28): 3.8 µM; SI (selectivity index) SK-MEL-28 [1]: 3.3; CC50 at 24 h [6]: 12.6 µM
glaucolide A [Compound 11, reference compound]	56.3 ± 1.4	95.1 ± 4.6	91.8 ± 3.3	CC50 [1]: 14.6 µM; CC50 [8]: 20.4 µM
